The text below walks through data of patent publication US20140234868A1, “USE FOR GLYCOLIPOPROTEIN GINTONIN, ISOLATED AND IDENTIFIED FROM GINSENG, AS A NATURAL MEDICAL-PLANT DERIVED LIGAND” (KONKUK UNIVERSITY INDUSTRIAL COOPERATION CORP., priority 2011, published 2014).

The target of test [1] is T1, LPA3 receptor (Homo sapiens, UniProt Q9UBY5).
T1 construct: host or cells: B103 rat neuroblastoma cells
T1 sequence (Q9UBY5 1-353): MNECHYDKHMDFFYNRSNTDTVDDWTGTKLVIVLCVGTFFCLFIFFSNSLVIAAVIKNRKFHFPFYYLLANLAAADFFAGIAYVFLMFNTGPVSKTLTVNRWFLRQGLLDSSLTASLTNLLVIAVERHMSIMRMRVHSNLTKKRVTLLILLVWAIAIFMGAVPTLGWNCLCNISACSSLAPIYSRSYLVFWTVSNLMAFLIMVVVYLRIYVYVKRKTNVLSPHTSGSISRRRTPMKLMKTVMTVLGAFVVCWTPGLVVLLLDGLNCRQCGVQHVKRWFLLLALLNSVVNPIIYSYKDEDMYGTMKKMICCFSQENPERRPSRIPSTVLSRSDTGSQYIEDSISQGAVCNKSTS
Kind of test: Intracellular free Ca2+ (Fura-2AM) in LPA3-expressing B103 cells. The test is classed as cell-based. Conditions: LPA3-expressing B103 cells; for increase of intracellular calcium level: ginsenosides each 10 μM. From the text:
(§1) LPA family receptors are endogenous to cells of most organs. B103 rat neuroblastoma cells, known as LPA receptor-null cells (Valentine et al., Biochim Biophys Acta 1780. 597-605) were transiently transfected with a plasmid (vector) carrying one of genes coding for LPA1(edg-2), LPA2(edg-4), LPA3(edg-7), LPA4, LPA5 and LPA6 receptors or a plasmid carrying none of them (empty vector). Two or three days after transfection, the cells are suspended, and made permeable. Then, the permeable cells are treated with Fura-2AM, a fluorescent dye binding to calcium, and then with gintonin, followed by spectrofluorephotometry to examine whether gintonin induces an increase in intracellular free Ca^2+ level.
(§2) (1) preparing large quantities of plasmids carrying respective LPA family receptor genes and an empty plasmid carrying none of them through amplification and purification (maxi-preparation); (2) verifying the expression of LPA receptors wherein B103 cells are transfected with haematoglutin (HA)-tagged LPA receptors, and then subjected to Western blotting analysis using an anti-HA primary antibody and a horseradish peroxidase (HRP)-conjugated secondary antibody to develop a color; (3) verifying the expression of LPA receptors wherein B1-3 cells are transfected with haematoglutin (HA)-tagged LPA receptors, and then subjected to confocal laser microscopy using an anti-HA antibody and a fluorescence dye Cy3-conjugated secondary antibody; (4) transfecting the empty plasmid and each of the plasmids carrying LPA family receptor genes into B103 cells; (5) treating the transfected B103 cells with trypsin (0.05% trypsin with EDTA, w/v) 2-3 days post-transfection, to give a cell suspension; (6) culturing the suspended B103 cells with Fura-2AM (2.5 μM); and (7) treating the suspended B103 cells with gintonin and quantifying a change in intracellular free Ca^2+ level in a cuvette by spectrofluorephotometry using Fura-2AM.
(§3) Human LPA (lysophosphatidic acid) receptor subtypes, orphan GPCRs (G protein coupled receptors) and plasmids carrying GPCRs were purchased from Missouri S&T resource Center (www.cDNA.org).
(§4) The transient transfection of LPA receptor subtypes was carried out with the aid of Lipofectamine 2000 of Invitrogen. A plasmid (10.8 μg) carrying each LPA receptor (LPA1, LPA2, LPA3, LPA4, LPA5, and LPA6) was transfected into B103 cells grown in 10-cm dishes, and incubated for 2 days prior for use in experiments.
In this Example, gintonin, or ginsenoside Rb1 or Rg1 was examined for its ability to induce a transient increase of [Ca^2+]i in Fura-2AM-loaded B103 cells which were transfected with LPA receptors and in Fura-2AM-loaded B103 cells which were not transfected with LPA receptors. To this end, B103 cells (2˜4×10^6/ml) pre-treated with Fura-2AM were suspended in a 1.5 mM Ca^2+-containing buffer or Ca^2+-free buffer, and incubated 37° C. for 30 min, followed by analyzing intracellular calcium levels in the B103 cells in the presence of gintonin or ginsenosides.
Briefly, B103 cells (1˜2×10^6/ml) were mixed with 2.5 μM Fura 2-AM in a Ca^2+ buffer (pH 7.4) containing NaCl 120 mM, KCl 5 mM, MgCl2 1 mM, CaCl2 1.5 mM, glucose 10 mM, and HEPES 25 mM, and a Ca^2+ free buffer (pH 7.4) containing NaCl 120 mM, KCl 5 mM, MgCl2 1 mM, EGTA 0.2 mM, glucose 10 mM, and HEPES 25 mM at 37° C. for 30 min in water bath with shaking according to the Jørgensen method, and washed three times with Ca^2+ buffer or Ca^2+ free buffer to remove excess Fura-2AM.
[Ca^2+]i was estimated in Fura 2AM-loaded cells in suspension using an RF-5300PC intracellular ion measurement system (Shimadzu Corporation, Japan).
Briefly, Fura 2-AM loaded cells were diluted with an experimental medium to a final density of 2˜4×10^6 cells/mL, and transferred to polystyrene cuvettes (Elkay Ultra-VU). The cells were stirred using Teflon-coated magnets, and the cuvette housing was thermostatically controlled at 37° C. The excitation wavelengths were alternated between 340 and 380 nm under computer control. […]

In test [2] the target is LPA2 receptor (Homo sapiens, UniProt Q9HBW0). Kind of test: Intracellular free Ca2+ (Fura-2AM) in LPA2-expressing B103 cells. In kind it is cell-based. Conditions: LPA2-expressing B103 cells. On the set-up: host or cells: B103 rat neuroblastoma cells.
Sequence of LPA2 receptor (Q9HBW0 whole entry): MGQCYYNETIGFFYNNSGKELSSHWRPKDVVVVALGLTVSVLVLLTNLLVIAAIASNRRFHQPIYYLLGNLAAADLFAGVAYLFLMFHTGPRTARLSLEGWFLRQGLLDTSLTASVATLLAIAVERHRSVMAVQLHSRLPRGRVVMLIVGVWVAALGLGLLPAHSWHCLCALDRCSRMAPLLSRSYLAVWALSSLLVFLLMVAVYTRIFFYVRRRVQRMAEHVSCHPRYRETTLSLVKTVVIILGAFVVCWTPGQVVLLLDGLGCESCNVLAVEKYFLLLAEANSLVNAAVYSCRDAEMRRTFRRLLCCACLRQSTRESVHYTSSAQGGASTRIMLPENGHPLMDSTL
Text: as §1, §2, §3, §4
In this Example, gintonin, or ginsenoside Rb1 or Rg1 was examined for its ability to induce a transient increase of [Ca^2+]i in Fura-2AM-loaded B103 cells which were transfected with LPA receptors and in Fura-2AM-loaded B103 cells which were not transfected with LPA receptors. […]

Test [3] deals with endogenous CaCC. Kind of test: Endogenous Ca2+-activated channel (CaCC) activation in Xenopus oocytes. In kind it is cell-based, Xenopus laevis. Conditions: Kil6425 10 μM; U73122 1 μM; 2-APB 100 μM; BAPTA 100 μM 3 h.
Test [4] relates to NMDA receptors (NR1 and NR2). The experiment in a line: NMDA receptor activity in Xenopus oocytes, two-electrode voltage clamp. The test is classed as cell-based. Conditions: Kil6425 10 μM, 2-APB 100 μM, BAPTA 100 μM 3 h; for effect on NMDA-induced inward current: U73122 1 μM; for effect on gintonin-induced NMDA receptor activation: gintonin 1 μg/ml, U73122, U73343 1 μM, genistein 10 μM, PP2, PP3 30 μM. As for the experimental part: cDNAs of NMDA receptor subunits (NR1 and NR2) were employed (Zheng et al., J Neurosci. 17, 8676-8686, 1997). cDNAs (100 ng/40 nl) corresponding to respective NMDA receptor subunits (NR1 and NR2) were injected into animal or vegetal poles of oocytes by use of a […] (VWR Scientific, USA) and incubated for 4-5 days after injection (Zheng et al., J Neurosci. 17, 8676-8686, 1997).
(§5) Xenopus laevis frogs were obtained from Xenopus I (Ann Arbor, Mich.). Their care and handling were in accordance with the highest standards of institutional guidelines. To isolate oocytes, the frogs were operated on under anesthesia with an aerated solution of 3-aminobenzoic acid ethyl ester. Oocytes were separated by treatment with collagenase and agitation for two hours in a Ca^2+-free medium containing 82.5 mM NaCl, 2 mM KCl, 1 mM MgCl2, 5 mM HEPES, 2.5 mM sodium pyruvate, 100 units/ml penicillin and 100 μg/ml streptomycin.
Stage V-VI oocytes were collected and stored in ND96 (96 mM NaCl, 2 mM KCl, 1 mM MgCl2, 1.8 mM CaCl2, and 5 mM HEPES, pH 7.4) supplemented with 50 μg/ml gentamicin. This oocyte containing solution was maintained at 18° C. with continuous gentle shaking while the ND96 medium was changed to a fresh one every day.
Two-electrode voltage-clamp recordings were obtained from individual oocytes placed in a small Plexiglas net chamber (5 ml). Electrophysiological experiments were performed using microelectrodes filled with 3 M KCl (resistance of 0.2-0.7 MΩ) and an Oocyte Clamp amplifier (OC-725C; Warner Instrument, Hamden, Conn.). For physiological recordings of NMDA receptor activity, oocytes were first perfused with Mg^2+-free ND96 (mM: 96 NaOH, 2 KOH, 0.3 CaCl2, 5 HEPES pH 7.6 with methanesulfonic acid). Then, the oocytes were clamped at −60 mV holding potential, followed by recoding NMDA currents (induced by administering […]) (Zheng et al., J Neurosci. 17, 8676-8686, 1997; Chang and Kuo, J Neurosci. 28, 1546-1556, 2008).

Test [5] concerns BKCaK+ channels. The experiment in a line: BKCa K+ channel activity in Xenopus oocytes, two-electrode voltage clamp. In kind it is cell-based. The settings on record: 2-APB 100 μM, BAPTA-AM, PMA 1 μM; for effect on gintonin-induced BKCaK+ channel activation: Kil6425 10 μM, U73122, U73343 1 μM. As for the experimental part: as §5
Stage V-VI oocytes were collected and stored in ND96 (96 mM NaCl, 2 mM KCl, 1 mM MgCl2, 1.8 mM CaCl2, and 5 mM HEPES, pH 7.4) supplemented with 50 μg/ml gentamicin. This oocyte containing solution was maintained at 18° C. with continuous gentle shaking while the ND96 medium was changed with a fresh one every day.
Two-electrode voltage-clamp recordings were obtained from individual oocytes placed in a small Plexiglas net chamber (5 ml). Electrophysiological experiments were performed using microelectrodes filled with 3 M KCl (resistance of 0.2-0.7 MΩ) and an Oocyte Clamp amplifier (OC-725C; Warner Instrument, CT, USA) to record BKc K^+ channel activity at room temperature (Choi et al., Mol Cells 31, 133-140, 2011). For physiological recordings of BKCaK^+ channel activity, oocytes were first perfused with a Cl^−- and Ca^2+-free solution (mM: 96 NaOH, 2 KOH, 8 Mg-gluconate, 5 HEPES, 5 EGTA, pH 7.4 with methanesulfonic acid) supplemented with 500 μM anthracene-9-carboxylic acid, a Cl^− channel blocker, to block endogenous Cl-channels (Lu et al., J. Biol. Chem. 265, 16190-16194.1990). Then, the oocytes were clamped at −80 mV holding potential, followed by step depolarization from the holding potential to +40 mV at regular intervals of […] for 400 ms to record outward currents.

Regarding `CC(C)=CCC[C@](C)(O)[C@H]1CC[C@]2(C)[C@@H]1[C@H](O)C[C@@H]1[C@@]3(C)CC[C@H](O[C@@H]4O[C@H](CO)[C@@H](O)[C@H](O)[C@H]4O[C@@H]4O[C@H](CO)[C@@H](O)[C@H](O)[C@H]4O)C(C)(C)[C@@H]3CC[C@]12C` [Rg3, ginsenoside Rg3], the “increase of intracellular calcium level” value in test [1] is given as “no increased intracellular calcium levels were detected”.

On to pertussis toxin [PTX], for which, in test [1] (PTX 200 μg/ml, 16 hrs pretreatment, vs cells not treated with PTX), the “lowering of gintonin-induced increase of intracellular calcium level” value is on record as 25%.

Regarding `NCCOB(c1ccccc1)c1ccccc1` [2-APB], the “effect on gintonin-induced intracellular calcium increase” value in test [2] is reported as “blocked”. Besides, the “effect on gintonin-induced CaCC activation” value in test [3] was “suppressed gintonin-induced CaCC activation”. In test [4], the “effect on NMDA-induced inward current” value is “did not block NMDA-induced inward current” and the “effect on gintonin-induced NMDA receptor activation” value is recorded as “blocked gintonin-induced NMDA receptor activation”. In addition, the “effect on gintonin-induced BKCaK+ channel activation” value in test [5] is “blocked gintonin-induced BKCaK^+ channel activation”. Also, the “effect on ginsenoside Rg3-induced BKCaK+ channel activity” value in test [5] (U73122 1 μM) is recorded as “not blocked”.

In the case of `CC(C)=CCC[C@](C)(O[C@@H]1O[C@H](CO)[C@@H](O)[C@H](O)[C@H]1O)[C@H]1CC[C@]2(C)[C@@H]1[C@H](O)C[C@@H]1[C@@]3(C)CC[C@H](O)C(C)(C)[C@@H]3[C@@H](O[C@@H]3O[C@H](CO)[C@@H](O)[C@H](O)[C@H]3O)C[C@]12C` [Rg1, ginsenoside Rg1], in test [1], the “increase of intracellular calcium level” value was “no increased intracellular calcium levels were detected”.

In the case of `COc1ccc2c(c1)CC[C@@H]1[C@@H]2CC[C@]2(C)[C@@H](NCCCCCCN3C(=O)C=CC3=O)CC[C@@H]12` [U73122], the “effect on gintonin-induced intracellular calcium increase” value in test [2] was “blocked”. The “effect on gintonin-induced CaCC activation” value in test [3] is reported as “suppressed gintonin-induced CaCC activation”. For the same molecule, in test [4], the “effect on NMDA-induced inward current” value is “did not block NMDA-induced inward current” and the “effect on gintonin-induced NMDA receptor activation” value is “blocked gintonin-induced NMDA receptor activation”. Also, in test [5], the “effect on gintonin-induced BKCaK+ channel activation” value is “blocked gintonin-induced BKCaK^+ channel activation”.

In the case of `CC(C)=CCC[C@](C)(O[C@@H]1O[C@H](CO[C@@H]2O[C@H](CO)[C@@H](O)[C@H](O)[C@H]2O)[C@@H](O)[C@H](O)[C@H]1O)[C@H]1CC[C@]2(C)[C@@H]1[C@H](O)C[C@@H]1[C@@]3(C)CC[C@H](O[C@@H]4O[C@H](CO)[C@@H](O)[C@H](O)[C@H]4O[C@@H]4O[C@H](CO)[C@@H](O)[C@H](O)[C@H]4O)C(C)(C)[C@@H]3CC[C@]12C` [Rb1, ginsenoside Rb1], the “increase of intracellular calcium level” value in test [1] was “no increased intracellular calcium levels were detected”.
